Data reported in patent publication US20140113877A1, “NOVEL 3,4,4A,10B-TETRAHYDRO-1H-THIOPYRANO[4,3-C] ISOQUINOLINE COMPOUNDS” (Takeda GmbH, priority 2011, published 2014).

Columns and labels:
PDE4B1 = target: T1, PDE4B1 (Homo sapiens, UniProt Q07343); assay: Inhibition of PDE4B1 activity (SPA, [3H]cAMP); assay type: biochemical; conditions: recombinant PDE4B1, 0.5 μM cAMP; binned: below 8 / between 8 and 9; read-out: PDE4B1 inhibitory values measured as −logIC50 (converted)
T1 construct: made in house; host or cells: SF21 insect cells (baculovirus; virus prepared in SF9 cells)
T1 sequence (Q07343 whole entry): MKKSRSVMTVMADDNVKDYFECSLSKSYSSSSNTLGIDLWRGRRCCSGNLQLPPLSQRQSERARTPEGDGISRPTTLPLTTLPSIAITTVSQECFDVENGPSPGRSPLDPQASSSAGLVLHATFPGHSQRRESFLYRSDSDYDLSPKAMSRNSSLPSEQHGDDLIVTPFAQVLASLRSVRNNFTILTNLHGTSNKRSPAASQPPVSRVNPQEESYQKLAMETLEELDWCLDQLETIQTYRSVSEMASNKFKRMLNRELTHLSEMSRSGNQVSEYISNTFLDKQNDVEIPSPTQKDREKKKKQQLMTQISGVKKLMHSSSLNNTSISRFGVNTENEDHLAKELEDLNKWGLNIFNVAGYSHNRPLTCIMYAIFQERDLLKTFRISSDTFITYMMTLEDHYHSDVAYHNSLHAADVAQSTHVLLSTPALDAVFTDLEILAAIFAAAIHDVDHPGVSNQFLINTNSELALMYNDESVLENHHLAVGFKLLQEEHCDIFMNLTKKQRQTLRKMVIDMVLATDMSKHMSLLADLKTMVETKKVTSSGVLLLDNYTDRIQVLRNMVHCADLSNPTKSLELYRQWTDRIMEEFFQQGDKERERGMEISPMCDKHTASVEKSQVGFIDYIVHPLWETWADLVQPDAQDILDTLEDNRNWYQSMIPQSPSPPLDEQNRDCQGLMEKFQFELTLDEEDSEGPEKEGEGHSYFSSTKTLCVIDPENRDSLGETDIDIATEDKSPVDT
Protocol: The PDE4B1 (GB no. L20966) was a gift of Prof. M. Conti (Stanford University, USA). It was amplified from the original plasmid (pCMV5) via PCR with primers Rb18 (5′-[…]-3′) and Rb10 (5′-[…]-3′) and cloned into the pCR-Bac vector (Invitrogen, Groningen, NL).
The recombinant baculovirus was prepared by means of homologous recombination in SF9 insect cells. The expression plasmids were cotransfected with Baculo-Gold DNA (Pharmingen, Hamburg) using a standard protocol (Pharmingen, Hamburg). Wt virus-free recombinant virus supernatants were selected using plaque assay methods. After that, high-titre virus supernatants were prepared by amplifying 3 times. PDE4B1 was expressed in SF21 cells by infecting 2×10^6 cells/ml with an MOI (multiplicity of infection) between 1 and 10 in the serum-free SF900 medium (GIBCO Life Technologies, Karlsruhe, Germany). The cells were cultured at 28° C. for 48-72 hours, after which they were pelleted for 5-10 min at 1000×g and 4° C.
The SF21 insect cells were resuspended, at a concentration of approx. 10^7 cells/ml, in ice-cold (4° C.) homogenization buffer (20 mM Tris, pH 8.2, containing the following additions: 140 mM NaCl, 3.8 mM KCl, 1 mM EGTA, 1 mM MgCl2, 10 mM β-mercaptoethanol, 2 mM benzamidine, 0.4 mM Pefablock, 10 μM leupeptin, 10 μM pepstatin A, 5 μM trypsin inhibitor) and disrupted by ultrasonication. The homogenate was then centrifuged for 10 min at 1000×g and the supernatant was stored at −80° C. until subsequent use (see below). The protein content was determined by the Bradford method (BioRad, Munich) using BSA (Bovine serum albumin) as the standard.
PDE4B1 activities were measured in a 96-well platform using SPA (scintillation proximity assay) yttrium silicate beads (RPNQ1050 from GE Healthcare). In a first step the PDE activity operated hydrolysis of either [^3H] cAMP (substrate) into [^3H] 5′AMP. In a second step substrate and product were distinguished following addition of SPA yttrium silicate beads. Indeed, in the presence of zinc sulphate the linear [^3H] […] Close proximity of bound [^3H] […] The test volume was 100 μl and finally contained 20 mM Tris buffer (pH 7.4), 0.1 mg/ml of BSA, 5 mM Mg^2+, 0.5 μM cAMP (including about 50,000 cpm of [3H]cAMP) as substrate, 1 μl of the respective substance dilution in DMSO and sufficient recombinant PDE (1000×g supernatant, see above) to ensure that 10-20% of the cAMP was converted under the said experimental conditions. […] After a preincubation of 5 min at 37° C., the reaction was commenced by adding the substrate (cAMP) and the assays were incubated for a further 15 min. Reactions were terminated by adding SPA beads (50 μl). In agreement with the manufacturer's instructions, the SPA beads had previously been resuspended in water, but were then diluted 1:3 (v/v) in water. This diluted solution further contained 3 mM IBMX (isobutylmethylxanthine) to ensure a complete block of PDE activity. Once the beads were sedimented (>30 min), the MTP's (microtiter plate) were analyzed in commercially available luminescence detection devices. The corresponding IC50 values of the compounds for inhibition of PDE4B1 activity were determined from the concentration-effect curves by means of non-linear regression.
For the following compounds PDE4B1 inhibitory values [measured as −logIC50 (mol/l)] below 8 and between 8 and 9 have been determined. The numbers of the compounds correspond to the numbers of the examples.

human PDE5 = target: T2, human PDE5 (Homo sapiens, UniProt O76074); assay: Inhibition of PDE5 activity (SPA, [3H]cGMP, platelet lysate); assay type: biochemical; conditions: 0.5 μM cGMP, binned: below 8 / between 8 and 9, read-out: PDE5 inhibitory values measured as −logIC50 (converted)
T2 construct: from tissue; host or cells: human platelets from fresh donor blood (platelet lysate)
Protocol: As a source for human PDE5, platelets were used. For that purpose, 150 ml fresh blood from human donors anticoagulated with citrate [final concentration 0.3% (w/v)] was centrifuged at 200 g for 10 min to obtain the so-called platelet-rich-plasma (PRP) as a supernatant. 1/10 volume of ACD solution (85 mM Na3-citrate, 111 mM D-glucose, 71 mM citric acid, pH 4.4) was added to 9/10 volume of PRP. After centrifugation (1,400 g, 10 min) the cell pellet was resuspended in 3 ml homogenization buffer (NaCl 140 mM, KCl 3.8 mM, EGTA (ethylene glycol tetraacetic acid) 1 mM, MgCl2 1 mM, Tris-HCl 20 mM, beta-mercaptoethanol 1 mM, pH 8.2) plus protease-inhibitor mix resulting in final concentrations of 0.5 mM Pefablock (Roche), 10 μM Leupeptin, 5 μM Trypsine inhibitor, 2 mM Benzamidin and 10 μM Pepstatin A. The suspension was sonicated and thereafter centrifuged for 15 min at 10,000 g. The resulting supernatant (platelet lysate) was used for enzymatic assays.
PDE5 activities were measured in a 96-well platform using SPA (scintillation proximity assay) yttrium silicate beads (RPNQ1050 from GE Healthcare). In a first step the PDE activity operated hydrolysis of either [^3H] cGMP (substrate) into [^3H] 5′GMP. In a second step substrate and product were distinguished following addition of SPA yttrium silicate beads. Indeed, in the presence of zinc sulphate the linear [^3H] […] Close proximity of bound [^3H] […] The test volume was 100 μl and contained 20 mM Tris buffer (pH 7.4), 0.1 mg of BSA (bovine serum albumin)/ml, 5 mM Mg^2+, 1 μM motapizone (PDE3 Inhibitor), 10 nM PDE2 inhibitor 2-(3,4-dimethoxybenzyl)-7-[(1R,2R)-2-hydroxy-1-(2-phenylethyl)propyl]-5-methylimidazo[5,1-f][1,2,4]triazin-4(3H)-one, 0.5 μM cGMP (cyclic guanosine monophosphate) (including about 50,000 cpm of [3H]cGMP as a tracer) (substrate), 1 μl of the respective compound dilution in dimethylsulfoxide (DMSO) and sufficient PDE5-containing platelet lysat (10,000×g supernatant, see above) to ensure that 10-20% of the cGMP was converted under the said experimental conditions. […] After a preincubation of 5 min at 37° C., the reaction was commenced by adding the substrate (cGMP) and the assay was incubated for a further 15 min. The reaction was terminated by adding SPA beads (50 μl). In agreement with the manufacturer's instructions, the SPA beads had previously been resuspended in water, but were then diluted 1:3 (v/v) in water. This diluted solution also contained 3 mM 8-methoxymethyl-3-isobutyl-1-methylxanthine (IBMX) to ensure a complete block of PDE activity. Once the beads were sedimented (>30 min), the MTP's were analyzed in commercially available luminescence detection devices. The corresponding IC50 values of the compounds for inhibition of PDE activity were determined from the concentration-effect curves by means of non-linear regression.
For the following compounds PDE5 inhibitory values [measured as −logIC50 (mol/l)] below 8 and between 8 and 9 have been determined. The numbers of the compounds correspond to the numbers of the examples.

Compound	IC50 (PDE4B1)	IC50 (human PDE5)
CCOc1cc2c(cc1OC)C(c1ccc(C(=O)N3CCC(n4c(=O)c5sc(-c6ccccc6)cc5n(Cc5ccc(OC)c(F)c5)c4=O)CC3)cc1)=N[C@@H]1CCSC[C@H]21 [Example 1, 3-(1-{4-[(4aR,10bR)-9-ethoxy-8-methoxy-3,4,4a,10b-tetrahydro-1H-thiopyrano[4,3-c]isoquinolin-6-yl]benzoyl}piperidin-4-yl)-1-(3-fluoro-4-methoxybenzyl)-6-phenylthieno[3,2-d]pyrimidine-2,4(1H,3H)-dione]	1 to 10 nM	1 to 10 nM
CCOc1cc2c(cc1OC)C(c1cccc(C(=O)N3CCC(n4c(=O)c5sc(-c6ccccc6)cc5n(Cc5ccc(OC)c(F)c5)c4=O)CC3)c1)=N[C@@H]1CCSC[C@H]21 [Example 2, 3-[1-({3-[(4aR,10bR)-9-ethoxy-8-methoxy-3,4,4a,10b-tetrahydro-1H-thiopyrano[4,3-c]isoquinolin-6-yl]phenyl}carbonyl)piperidin-4-yl]-1-(3-fluoro-4-methoxybenzyl)-6-phenylthieno[3,2-d]pyrimidine-2,4(1H,3H)-dione]	1 to 10 nM	1 to 10 nM
CCOc1cc2c(cc1OC)C(c1ccc(C(=O)N3CCC(n4c(=O)c5sc(-c6ccccc6)cc5n(Cc5cc(F)c(OC)c(F)c5)c4=O)CC3)cc1)=N[C@@H]1CCSC[C@H]21 [Example 3, 1-(3,5-difluoro-4-methoxybenzyl)-3-[1-({4-[(4aR,10bR)-9-ethoxy-8-methoxy-3,4,4a,10b-tetrahydro-1H-thiopyrano[4,3-c]isoquinolin-6-yl]phenyl}carbonyl)piperidin-4-yl]-6-phenylthieno[3,2-d]pyrimidine-2,4(1H,3H)-dione]	1 to 10 nM	1 to 10 nM
CCOc1cc2c(cc1OC)C(c1ccc(C(=O)N3CCC(n4c(=O)c5sc(-c6ccccc6)cc5n(Cc5ccc(OC)c(F)c5F)c4=O)CC3)cc1)=N[C@@H]1CCSC[C@H]21 [Example 4, 1-(2,3-difluoro-4-methoxybenzyl)-3-[1-({4-[(4aR,10bR)-9-ethoxy-8-methoxy-3,4,4a,10b-tetrahydro-1H-thiopyrano[4,3-c]isoquinolin-6-yl]phenyl}carbonyl)piperidin-4-yl]-6-phenylthieno[3,2-d]pyrimidine-2,4(1H,3H)-dione]	1 to 10 nM	1 to 10 nM
CCOc1cc2c(cc1OC)C(c1ccc(C(=O)N3CCC(n4c(=O)c5sc(-c6ccccc6)cc5n(Cc5cc(OC)c(OC)cc5F)c4=O)CC3)cc1)=N[C@@H]1CCSC[C@H]21 [Example 5, 3-[1-({4-[(4aR,10bR)-9-ethoxy-8-methoxy-3,4,4a,10b-tetrahydro-1H-thiopyrano[4,3-c]isoquinolin-6-yl]phenyl}carbonyl)piperidin-4-yl]-1-(2-fluoro-4,5-dimethoxybenzyl)-6-phenylthieno[3,2-d]pyrimidine-2,4(1H,3H)-dione]	1 to 10 nM	1 to 10 nM
CCOc1cc2c(cc1OC)C(c1ccc(C(=O)N3CCC(n4c(=O)c5sc(-c6ccccc6)cc5n(Cc5ccc(C)c(F)c5)c4=O)CC3)cc1)=N[C@@H]1CCSC[C@H]21 [Example 6, 3-[1-({4-[(4aR,10bR)-9-ethoxy-8-methoxy-3,4,4a,10b-tetrahydro-1H-thiopyrano[4,3-c]isoquinolin-6-yl]phenyl}carbonyl)piperidin-4-yl]-1-(3-fluoro-4-methylbenzyl)-6-phenylthieno[3,2-d]pyrimidine-2,4(1H,3H)-dione]	> 10 nM	1 to 10 nM
CCOc1cc2c(cc1OC)C(c1ccc(C(=O)N3CCC(n4c(=O)c5sc(-c6ccccc6)cc5n(Cc5ccccc5)c4=O)CC3)cc1)=N[C@@H]1CCSC[C@H]21 [Example 7, 1-benzyl-3-[1-({4-[(4aR,10bR)-9-ethoxy-8-methoxy-3,4,4a,10b-tetrahydro-1H-thiopyrano[4,3-c]isoquinolin-6-yl]phenyl}carbonyl)piperidin-4-yl]-6-phenylthieno[3,2-d]pyrimidine-2,4(1H,3H)-dione]	1 to 10 nM	1 to 10 nM
CCOc1cc2c(cc1OC)C(c1ccc(C(=O)N3CCC(n4c(=O)c5sc(-c6ccc7c(c6)OCO7)cc5n(Cc5ccc(OC)c(F)c5)c4=O)CC3)cc1)=N[C@@H]1CCSC[C@H]21 [Example 8, 6-(1,3-benzodioxol-5-yl)-3-[1-({4-[(4aR,10bR)-9-ethoxy-8-methoxy-3,4,4a,10b-tetrahydro-1H-thiopyrano[4,3-c]isoquinolin-6-yl]phenyl}carbonyl)piperidin-4-yl]-1-(3-fluoro-4-methoxybenzyl)thieno[3,2-d]pyrimidine-2,4(1H,3H)-dione]	1 to 10 nM	1 to 10 nM
CCOc1cc2c(cc1OC)C(c1ccc(C(=O)N3CCC(n4c(=O)c5sc(-c6ccc(F)cc6OC)cc5n(Cc5ccc(OC)c(F)c5)c4=O)CC3)cc1)=N[C@@H]1CCSC[C@H]21 [Example 9, 3-[1-({4-[(4aR,10bR)-9-ethoxy-8-methoxy-3,4,4a,10b-tetrahydro-1H-thiopyrano[4,3-c]isoquinolin-6-yl]phenyl}carbonyl)piperidin-4-yl]-1-(3-fluoro-4-methoxybenzyl)-6-(4-fluoro-2-methoxyphenyl)thieno[3,2-d]pyrimidine-2,4(1H,3H)-dione]	1 to 10 nM	1 to 10 nM
